From patent US20240090505A1, “MULTI-SOLVENT PESTICIDAL COMPOSITIONS INCLUDING SULFOXIMINE” (CLARKE MOSQUITO CONTROL PRODUCTS, INC., priority 2020, published 2024) come the findings set out here.

In this assay the test system is Culex sp. mosquitos. Nature of the assay: Laboratory test of samples with and without surfactant (Pluronic L92), knockdown and mortality. In kind it is in vivo. The following applies: propylene carbonate:tributyl O-acetylcitrate 1:1. As for the experimental part:
Various amounts of different surfactants were evaluated to determine possible impacts on efficacy. In one set of trials, different amounts of sulfoxaflor were tested with and without a surfactant (Pluronic L92 from BASF).

The structures appear in SMILES notation.

For `CC(c1ccc(C(F)(F)F)nc1)S(C)(=O)=NC#N` (stereo not drawn) [Sulfoxaflor, sulfoxaflor], the 1-hour knockdown turned out to be 2% (0.5 wt% sulfoxaflor, 20 wt% surfactant (Pluronic L92)); 0% (0.5 wt% sulfoxaflor, no surfactant); 18% (1 wt% sulfoxaflor, no surfactant).
